Measured values published in US20110172182A1, “Carboxyethylated Cyclodextrin Polysulfates Useful As Medicaments” (ARCARIOS B.V., priority 2008, published 2011).

Legend:
[1] = tested on: healthy donor thrombocytes; test: Platelet activation (CD62p, flow cytometry) by HIT patient anti-heparin/PF4 antibodies; assay type: cell-based, human; conditions: for ratio: % CD62p+ (with substance)/% CD62p+ (without) / ΔCD62p+ %: percentage increases in CD62p positive platelets: 0.3 IU heparin or 5 μg/ml polysaccharide
Procedure: The activation of healthy donor thrombocytes by HIT patient anti-heparin/PF4 antibodies in the presence of heparin and the differently sulfated forms of β-cyclodextrin was tested. […] The expression of CD62p by the activated platelets was assayed by means of flow cytometry with a FC500 analyzer (available from Beckman Coulter, Belgium). Platelet-rich plasma solution (PRP) was prepared by slow centrifugation (10 minutes at 180 g) of fresh citrate anti-coagulated blood (1:9 v/v, 0.129 mol/L or 3.8% trisodium citrate buffer), obtained from normal donors. HIT Ab positive plasma samples from patients and HIT Ab negative control plasma from healthy donors were prepared by double centrifugation (15 minutes at 2230 rpm) of fresh citrate anti-coagulated blood. 70 μl of PRP was incubated with 20 μL of HIT Ab containing plasma optionally in the presence of heparin (0.3 IU/ml) or the relevant β-cyclodextrin derivative (5 μg/ml). Experiments with each HIT Ab positive plasma sample were repeated independently using thrombocytes of 2 donors (A and B), to avoid the possibility of non-reactive platelets.
Following the initial 40 minutes incubation step, 5 μl of the platelets solution was transferred to a fresh tube with 85 μL phosphate buffered saline (PBS) containing 1% bovine serum albumin (BSA) and 0.1% Na-azide, 5 μl (0.25 μg) monoclonal anti-CD41 antibodies (Ab) (phycoerythrin-Texas Red Energy coupled dye (ECD)-conjugated, Beckman Coulter) and 5 μl (0.125 μg) of anti-CD62p Ab (phycoerythrin (PE)-conjugated, Beckman Coulter). CD41 (Glycoprotein […]) is a selective marker of platelets and platelet precursors. CD62p is a constituent of alpha granules and is released to the platelet surface on activation.
After 20 minutes of incubation at room temperature, the total volume of the platelet suspension was adjusted to 600 μL buffered solution and evaluated without delay by flow cytometry. 20,000 events per sample were analysed and the platelet populations were gated by side scatter characteristics and the platelet marker CD41. The fraction of activated platelets among the total platelet population was determined and relative CD62p ratios to the internal controls were calculated. [ratio: % CD62p^+ (0.3 IU Heparine or 5 μg/ml β-cyclodextrin derivative)/% CD62p^+ (0 IU Heparine or 0 μg/ml β-cyclodextrin derivative)]. Test results for the heparin treated platelets were evaluated by the scoring system described in Thromb. Haemost. (1999) 82:1255-1259. Control tests were scored positive when the calculated ratios of at least 2 donors were more then 2, based on previously obtained results with normal individuals. To evaluate the potential of the different β-cyclodextrin derivatives to induce platelet activation, both the percentages and ratios of CD62p^+ platelets after incubation with the respective β-cyclodextrin were statistically compared to the percentage and the ratio of CD62p^+ platelets after heparin incubation.

thrombin clotting = conditions: in vitro; cited from earlier work
normal pooled plasma = test: Blood coagulation activities (aPTT, PT, fibrinogen) in normal pooled plasma; design: species or system human; conditions: after incubation with 50 or 100 μg/ml
Procedure: MA-CDPS, HP-CDPS, CE-CDPS and CDPS (as defined in examples 3-4 and characterised in table 1) were prepared as buffered solutions at various concentrations. The polysaccharides were incubated with normal pooled plasma prepared out of 40 healthy volunteers and analyzed for their effects on activated partial thromboplastin time (aPTT), prothrombin time (PT) and fibrinogen levels on a STA Compact® coagulation analyzer (available from Diagnostica Stago, Asnieres, France) according to the manufacturers instructions.

[2] = tested on: rabbit model of experimental osteoarthritis (OA); conditions: subcutaneously administered; cited from earlier work
[3] = tested on: human articular chondrocytes from osteoarthritic (OA) cartilage; test: IL-6 release by OA chondrocytes in alginate beads; assay type: cell-based; conditions: 5 μg/ml, 5 culture days
Text: (§1) Human articular chondrocytes were isolated as described in J. Tissue Culture Methods (1993) 15:139-146). Briefly, human articular cartilage was obtained at total knee replacement surgery from femoral condyles and the tibial plateau of 15 different donors. None of them had received corticosteroids or cytostatic drugs. Both visually intact and fibrillated OA cartilage samples were harvested separately and only OA cartilage was used for cell culture. The cartilage samples were diced into small fragments and the chondrocytes were isolated by sequential enzymatic digestion (hyaluronidase, pronase and collagenase) of the extracellular matrix (ECM) as described in Osteoarthritis Cartilage (2001) 9:73-84. Isolated cells were then centrifuged for 10 minutes at 1500 rpm, washed three times in Dulbecco's Modified Eagle's Medium (DMEM) with 10% (v/v) fetal calf serum, and counted with trypan blue to exclude dead cells. More than 90% of the cells were viable after isolation.
(§2) Chondrocytes were cultured in alginate beads, to maintain their differentiated phenotype. The cultures were prepared as described in Connect Tissue Res. (1989) 19:277-297. Chondrocytes suspended in one volume of double-concentrated Hank's Balanced Salts Solution (HBSS, commercially available from Gibco) without calcium and magnesium were carefully mixed with an equal volume of 2% (w/v) autoclaved alginate (low-viscosity alginate from Macrocystis pyrifera, commercially available from Sigma) in HBSS. The final cell concentration was 5×10^6 chondrocytes per ml in 1% alginate. The chondrocyte/alginate suspension was then slowly dripped through a 23-gauge needle into a 102 mM calcium chloride solution. […]
(§3) To study the impact of the changes in the chondrocyte cultures after cyclodextrin polysulfate treatment, mean IL-6 and aggrecan concentrations were calculated from triplicate chondrocyte cultures of each donor. […] Evolution of mouse weight over time was analysed by longitudinal data analysis methods, more specific by area under the curve and mixed model analysis. […]

[4] = tested on: human articular chondrocytes from osteoarthritic (OA) cartilage; test: Aggrecan synthesis by OA chondrocytes in alginate beads (ELISA of interterritorial matrix); assay type: cell-based; conditions: 5 μg/ml, 5 culture days
Text: as §1, §2, §3

[5] = HIT ab plasma pat1, platelet donor dA
[6] = HIT ab plasma pat1, platelet donor dB
[7] = HIT ab plasma pat2, platelet donor dB
[8] = HIT ab plasma pat3, platelet donor dA
[9] = HIT ab plasma pat3, platelet donor dB
[10] = HIT ab plasma pat4, platelet donor dA
[11] = HIT ab plasma pat4, platelet donor dB

With β-cyclodextrin polysulfate [CDPS] as the molecule, how does the “ratio: % CD62p+ (with substance)/% CD62p+ (without)” value (“ratio: % CD62p+ … (without)” for short) [1, 5] read?
The value was 5.8.

What about the “ΔCD62p+ %: percentage increases in CD62p positive platelets” value (“ΔCD62p+ %: percentage increases” below) [1, 5] of the same molecule?
The value was 76.1%.

And the “ratio: % CD62p+ … (without)” value [1, 6]?
Its value is 6.5.

And the “ΔCD62p+ %: percentage increases” value [1, 6]?
Its value is 73.1%.

What about the “ΔCD62p+ %: percentage increases” value ([1]; HIT ab plasma pat2, platelet donor dA) of the same molecule?
Its value is 27.5%.

What about the “ratio: % CD62p+ … (without)” value [1, 7] of the same molecule?
The value was 0.7.

And the “ΔCD62p+ %: percentage increases” value [1, 7]?
Its value is −2.8%.

And the “ratio: % CD62p+ … (without)” value [1, 8]?
Its value is 2.5.

What about the “ΔCD62p+ %: percentage increases” value [1, 8] of the same molecule?
Its value is 42.7%.

And the “ratio: % CD62p+ … (without)” value [1, 9]?
The value was 7.0.

What about the “ΔCD62p+ %: percentage increases” value [1, 9] of the same molecule?
Its value is 34.1%.

And the “ratio: % CD62p+ … (without)” value [1, 10]?
Its value is 4.4.

And the “ΔCD62p+ %: percentage increases” value [1, 10]?
The value was 63.5%.

And the “ratio: % CD62p+ … (without)” value [1, 11]?
Its value is 2.5.

What about the “ΔCD62p+ %: percentage increases” value [1, 11] of the same molecule?
Its value is 58.1%.

And the platelet activation ([1]; in the presence of plasma samples of individuals that had developed HIT Ab)?
The platelet activation was “induced platelet activation”.

What about the thrombin clotting times (thrombin clotting) of the same molecule?
Its thrombin clotting times is “prolongation”.

And the thrombus formation (thrombin clotting)?
The thrombus formation was “reduction”.

And the fibrinogen concentrations (normal pooled plasma)?
Its fibrinogen concentrations is “Minor decreases”.

What about the “cartilage lesions and osteocyte formation in the affected joints” value [2] of the same molecule?
The value was “reduced”.

Which results are given for “2,3-di-O-methyl-6-sulfate-β-cyclodextrin [ME-CD-6-S]”?
effect on chondrocyte IL-6 release/secretion [3]: failed to affect; effect on chondrocyte aggrecan synthesis [4]: failed to affect

Which results are given for “2,6-di-O-methyl-3-sulfate-β-cyclodextrin [ME-CD-3-S]”?
effect on chondrocyte IL-6 release/secretion [3]: failed to affect; effect on chondrocyte aggrecan synthesis [4]: failed to affect

Which results are given for `COC[C@H]1O[C@@H]2O[C@H]3[C@H](OC)[C@@H](OC)[C@@H](O[C@H]4[C@H](OC)[C@@H](OC)[C@@H](O[C@H]5[C@H](OC)[C@@H](OC)[C@@H](O[C@H]6[C@H](OC)[C@@H](OC)[C@@H](O[C@H]7[C@H](OC)[C@@H](OC)[C@@H](O[C@H]8[C@H](OC)[C@@H](OC)[C@@H](O[C@H]1[C@H](OC)[C@H]2OC)O[C@@H]8COC)O[C@@H]7COC)O[C@@H]6COC)O[C@@H]5COC)O[C@@H]4COC)O[C@@H]3COC` [ME-CD, 2,3,6-tri-O-methyl-β-cyclodextrin]?
effect on chondrocyte IL-6 release/secretion [3]: failed; effect on chondrocyte aggrecan synthesis [4]: failed to promote
